In ChEMBL document CHEMBL4265906, “Synthesis and biological evaluation of isoxazolyl-sulfonamides: A non-cytotoxic scaffold active against Trypanosoma cruzi, Leishmania amazonensis and Herpes Simplex Virus” (Bioorg Med Chem Lett, 2018):
The source made the active and inactive calls. No cut-off for these calls is given here.

What was measured:
[1] = Cytotoxicity against human A549 cells assessed as reduction in cell viability after 48 hrs by sulforhodamine B assay; assay type: cell-based
Trypanosoma cruzi [2] = assay: Trypanocidal activity against Trypanosoma cruzi Tulahuen trypomastigotes infected in human THP1 cells assessed as growth inhibition at 50 uM after 48 hrs by chlorophenolred-beta-d-galactopyranoside/Nonidet P-40 reagent-based assay; assay type: functional; conditions: for inhibition of growth at 50 µM: THP-1, 48 h, read-out: GI
Leishmania amazonensis [3] = assay: Leishmanicidal activity against Leishmania amazonensis MHOM/BR/77/LTB0016 amastigotes infected in human THP1 cells assessed as growth inhibition at 50 uM after 48 hrs by chlorophenolred-beta-d-galactopyranoside/Nonidet P-40 reagent-based assay; assay type: functional; conditions: for inhibition of growth at 50 µM: MHOM/BR/77/LTB0016, THP-1, 48 h, read-out: GI
[4] = Cytotoxicity against human THP1 cells assessed as reduction in cell viability by MTT assay; assay type: cell-based; conditions: THP-1 cells
Human alphaherpesvirus 1 [5] = assay: Antiviral activity against […] HSV1 KOS infected in African green monkey Vero cells assessed as inhibition of viral replication at 100 uM after 48 hrs by naphthol blue-black staining-based assay; assay type: functional; conditions: for inhibition at 100 µM: Human alphaherpesvirus 1, KOS
[6] = Cytotoxicity against human HCT8 cells assessed as reduction in cell viability after 48 hrs by sulforhodamine B assay; assay type: cell-based; conditions: HCT-8 cells
Human alphaherpesvirus 1 [7] = assay: Antiviral activity against […] HSV1 KOS infected in African green monkey Vero cells assessed as inhibition of viral replication after 48 hrs by naphthol blue-black staining-based assay; assay type: functional, organism-based
[8] = Selectivity index, ratio of CC50 for human THP1 cells to G150 for Trypanosoma cruzi Tulahuen trypomastigotes; assay type: toxicity; conditions: THP-1 cells, read-out: Selectivity Index
[9] = Cytotoxicity against African green monkey Vero cells assessed as reduction in cell viability after 48 hrs by sulforhodamine B assay; assay type: cell-based; conditions: chlorocebus sabaeus
Trypanosoma cruzi [10] = assay: Trypanocidal activity against Trypanosoma cruzi Tulahuen trypomastigotes infected in human THP1 cells assessed as growth inhibition after 48 hrs by chlorophenolred-beta-d-galactopyranoside/Nonidet P-40 reagent-based assay; assay type: functional
[11] = Selectivity index, ratio of CC50 for African green monkey Vero cells to IC50 for HSV1 KOS; assay type: toxicity; conditions: read-out: Ratio CC50/IC50
Leishmania amazonensis [12] = assay: Leishmanicidal activity against Leishmania amazonensis MHOM/BR/77/LTB0016 amastigotes infected in human THP1 cells assessed as growth inhibition at 2 uM after 48 hrs by chlorophenolred-beta-d-galactopyranoside/Nonidet P-40 reagent-based assay; assay type: functional; conditions: MHOM/BR/77/LTB0016, THP-1, 48 h, read-out: GI
Trypanosoma cruzi [13] = assay: Trypanocidal activity against Trypanosoma cruzi Tulahuen trypomastigotes infected in human THP1 cells at 20 uM after 48 hrs by chlorophenolred-beta-d-galactopyranoside/Nonidet P-40 reagent-based assay; assay type: functional; conditions: THP-1, 48 h, read-out: GI
[14] = Human alphaherpesvirus 1, KOS, Vero, 48 h, read-out: IC50

Structure (SMILES) | inhibition of growth at 50 µM (Trypanosoma cruzi [2]) [%] | inhibition of growth at 50 µM (Leishmania amazonensis [3]) [%] | inhibition at 100 µM (Human alphaherpesvirus 1 [5]) [%] | IC50 (Human alphaherpesvirus 1 [7]; [14]) [µM] | GI50 (Trypanosoma cruzi [10]; THP-1, 48 h) [µM] | inhibition (Human alphaherpesvirus 1 [5]) | IC50 (Human alphaherpesvirus 1 [7]; vero) | further results
COc1ccc(-c2cc(CNS(=O)(=O)c3ccc(F)cc3)on2)cc1OC | 72.8 | 6.6 | 22.8 | > 100 | 42.4 |  |  | CC50 at 48 h [1]: 327 µM; CC50 [4]: 300 µM; CC50 at 48 h [6]: 374 µM; selectivity ratio [8]: 7.1; CC50 at 48 h [9]: 397 µM
COc1ccc(-c2cc(CNS(=O)(=O)c3ccc([N+](=O)[O-])cc3)on2)cc1OC | 53.9 | 10.2 |  |  | > 50 | inactive | Not Active | 
Cc1ccc(S(=O)(=O)NCc2cc(-c3ccc([N+](=O)[O-])cc3)no2)cc1 | 9.8 | 9.3 |  |  | > 50 | inactive | Not Active | 
COc1ccc(-c2cc(CNS(=O)(=O)c3ccc([N+](=O)[O-])cc3)on2)cc1 | 85.8 | 48.7 | 60 | 137 | 14.3 |  |  | selectivity ratio [11]: > 3.6; selectivity ratio [8]: > 34.8
O=[N+]([O-])c1ccc(-c2cc(CNS(=O)(=O)c3ccc([N+](=O)[O-])cc3)on2)cc1 | 76.2 | 25.2 |  |  | 38.6 | inactive | Not Active | selectivity ratio [8]: > 12.9
COc1ccc(-c2cc(CNS(=O)(=O)c3ccc(Cl)cc3)on2)cc1OC | 27.4 |  | 2 | > 100 | > 50 |  |  | growth inhibition (GI) (Leishmania amazonensis [3]): inactive
O=[N+]([O-])c1ccc(S(=O)(=O)NCc2cc(-c3ccccc3)no2)cc1 | 34 | 18.4 | 10.4 | > 100 | > 50 |  |  | 
O=S(=O)(NCc1cc(-c2ccc3c(c2)OCO3)no1)c1ccc(F)cc1 |  | 12.8 | 70.1 | 173 |  |  |  | growth inhibition (GI) (Trypanosoma cruzi [2]): inactive; selectivity ratio [11]: > 2.9; GI50 (Trypanosoma cruzi [10]): inactive
Cc1ccc(S(=O)(=O)NCc2cc(-c3ccc4c(c3)OCO4)no2)cc1 |  | 11.4 | 19.1 | > 100 |  |  |  | CC50 at 48 h [1]: 358 µM; growth inhibition (GI) (Trypanosoma cruzi [2]): inactive; CC50 [4]: > 500 µM; CC50 at 48 h [6]: 437 µM; CC50 at 48 h [9]: > 500 µM; GI50 (Trypanosoma cruzi [10]): inactive
O=S(=O)(NCc1cc(-c2ccc3c(c2)OCO3)no1)c1ccc(Cl)cc1 | 14.2 | 30.7 |  |  | > 50 | inactive | Not Active | 
O=S(=O)(NCc1cc(-c2ccccc2)no1)c1ccc(F)cc1 |  | 13.2 | 40.2 | > 100 |  |  |  | growth inhibition (GI) (Trypanosoma cruzi [2]): inactive; GI50 (Trypanosoma cruzi [10]): inactive
COc1ccc(-c2cc(CNS(=O)(=O)c3ccc(C)cc3)on2)cc1 |  | 2 | 65 | 95.9 |  |  |  | CC50 at 48 h [1]: > 500 µM; growth inhibition (GI) (Trypanosoma cruzi [2]): inactive; selectivity ratio [11]: > 3.4; CC50 [4]: > 500 µM; CC50 at 48 h [6]: > 500 µM; CC50 at 48 h [9]: ≥ 331 µM; GI50 (Trypanosoma cruzi [10]): inactive
Nc1nc2c(ncn2COCCO)c(=O)[nH]1 [ACYCLOVIR] |  |  |  | 1.29 |  |  |  | selectivity ratio [11]: > 1500
O=[N+]([O-])c1ccc(-c2cc(CNS(=O)(=O)c3ccc(Cl)cc3)on2)cc1 |  | 2 |  |  |  | inactive | Not Active | growth inhibition (GI) (Trypanosoma cruzi [2]): inactive; GI50 (Trypanosoma cruzi [10]): inactive
C[C@@H]1[C@H](O)[C@@H](C)/C=C/C=C/C=C/C=C/C=C/C=C/C=C/[C@H](O[C@@H]2O[C@H](C)[C@@H](O)[C@H](N)[C@@H]2O)C[C@@H]2O[C@](O)(C[C@@H](O)C[C@@H](O)[C@H](O)CC[C@@H](O)C[C@@H](O)CC(=O)O[C@H]1C)C[C@H](O)[C@H]2C(=O)O [AMPHOTERICIN B] |  |  |  |  |  |  |  | inhibition of growth at 2 µM (Leishmania amazonensis [12]): 92.1%
O=[N+]([O-])c1ccc(-c2cc(CNS(=O)(=O)c3ccc(F)cc3)on2)cc1 | 7.8 | 15.7 |  |  | > 50 | inactive | Not Active | 
O=C(Cn1ccnc1[N+](=O)[O-])NCc1ccccc1 [BENZNIDAZOLE] |  |  |  |  | 10.2 |  |  | inhibition of growth at 20 µM (Trypanosoma cruzi [13]): 96.6%; selectivity ratio [8]: > 49.1
O=S(=O)(NCc1cc(-c2ccccc2)no1)c1ccc(Cl)cc1 | 16.6 | 17.2 | 17.8 | > 100 | > 50 |  |  | 
COc1ccc(-c2cc(CNS(=O)(=O)c3ccc(F)cc3)on2)cc1 | 44.5 | 14 | 100 | 87.4 | > 50 |  |  | selectivity ratio [11]: > 5.7
COc1ccc(-c2cc(CNS(=O)(=O)c3ccc(C)cc3)on2)cc1OC | 25.6 | 4.1 |  |  | > 50 | inactive | Not Active | 
O=[N+]([O-])c1ccc(S(=O)(=O)NCc2cc(-c3ccc4c(c3)OCO4)no2)cc1 | 86.3 | 43.4 | 25.3 | > 100 | 11.6 |  |  | CC50 at 48 h [1]: 284 µM; CC50 [4]: 339 µM; CC50 at 48 h [6]: > 500 µM; selectivity ratio [8]: 29.1; CC50 at 48 h [9]: 387 µM
Cc1ccc(S(=O)(=O)NCc2cc(-c3ccccc3)no2)cc1 | 5.8 | 10.9 | 25.3 | > 100 | > 50 |  |  | 
COc1ccc(-c2cc(CNS(=O)(=O)c3ccc(Cl)cc3)on2)cc1 |  | 6.4 | 32 | > 100 |  |  |  | growth inhibition (GI) (Trypanosoma cruzi [2]): inactive; GI50 (Trypanosoma cruzi [10]): inactive
